Source: EP4678638A1, “NEW E3 UBIQUITIN LIGASE LIGAND, PROTEIN DEGRADATION AGENT AND USE THEREOF” (priority 2023, dated 2024)

Columns and labels:
H1975 = test: CCK-8 proliferation, NCI-H1975 (H1975); assay type: cell-based, Human; conditions: Homo sapiens, NCI-H1975; CCK-8; 96 hours; read-out: Inhibitory activity (IC50) on tumor cell proliferation, H1975
Method in brief: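 CCK-8 viability readout; IC50 from growth-inhibition curve fitting. Cells plated, dosed 24h later with a 10-point series, top 10µM, 5-fold steps. Culture at 37°C, 5% CO2.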

EGFR = test: Western blot degradation of EGFR (H1975 Cell); assay type: cell-based, Human; conditions: Table D2
Protocol: Conventional Western blot assay was performed to evaluate the effects of the compounds of the present disclosure on the expression of target proteins in cells.
(1) Cell Seeding and Protein Harvesting: The selected cells were processed according to the cell seeding procedure and protein harvesting procedure in Table III-2. Table III-2 Cell Seeding and Protein Harvesting Procedures
(2) To the collected supernatant, 5X SDS sample loading buffer was added, followed by denaturation at 95°C for 5 minutes. The denatured samples were then separated by SDS-PAGE electrophoresis on a polyacrylamide gel. Proteins were transferred to a nitrocellulose membrane (0.45 µm NC membrane), blocked with blocking buffer at room temperature for 1 hour, and subjected to antibody incubation and development procedures according to the antibody manufacturer's instructions (Cell Signaling Technology).
Half-Maximal Degradation Concentration value (the drug concentration required for degrading proteins by 50%, abbreviated as DC50) reads method: comparing the grayscale values of Western blot bands from drug-treated samples with those from blank DMSO-treated controls, and identifying the drug concentration range at which the grayscale value is half that of the DMSO-treated control bands.
DC50 values can be calculated using ImageJ software to measure grayscale values of Western blot bands from drug-treated samples. The concentration-response curve is fitted to estimate the drug concentration corresponding to half the grayscale value.
Target protein remaining (%) refers to the percentage of target protein remaining in hPBMC cells after treatment with protein degrader compounds.
Calculation method for target protein remaining (%): Use ImageJ software to measure grayscale values of Western blot bands from drug (protein degrader)-treated samples. The grayscale value of drug-treated bands is divided by that of internal control protein bands, and the resulting quotient is normalized to obtain the relative percentage of remaining target protein after protein degrader treatment.
Target protein degradation rate (%) = 100% - target protein remaining (%).

Structure (SMILES)	IC50 (H1975) [nM]	Degradation of substrate protein EGFR (substrate protein remaining %) (EGFR)
O=C1CCN(c2cc(CN3C[C@H]4C[C@@H]3CN4c3ccc(-c4cc(F)c5c(c4)C(=O)N(C(C(=O)Nc4nccs4)c4ncn6c4CCC6)C5)cc3)c(F)cn2)C(=O)N1 (stereo partly drawn) [GT-07386, 2-(6,7-dihydro-5H-pyrrolo[1,2-c]imidazol-1-yl)-2-(6-(4-((1R,4R)-5-((2-(2,4-dioxotetrahydropyrimidin-1(2H)-yl)-5-fluoropyridin-4-yl)methyl)-2,5-diazabicyclo[2.2.1]heptan-2-yl)phenyl)-4-fluoro-1-oxoisoindolin-2-yl)-N-(thiazol-2-yl)acetamide]	1 to 10	A (A is defined as 0% ≤ substrate protein remaining % ≤ 80%)
O=C1CCC(c2ccc(CN3C[C@@H]4C[C@H]3CN4c3ccc(-c4cc(F)c5c(c4)C(=O)N(C(C(=O)Nc4nccs4)c4ncn6c4CCC6)C5)cc3)cc2)C(=O)N1 (stereo partly drawn) [GT-05115, 2-(6,7-dihydro-5H-pyrrolo[1,2-c]imidazol-1-yl)-2-(6-(4-((1S,4S)-5-(4-(2,6-dioxopiperidin-3-yl)benzyl)-2,5-diazabicyclo[2.2.1]heptan-2-yl)phenyl)-4-fluoro-1-oxoisoindolin-2-yl)-N-(thiazol-2-yl)acetamide]	10 to 50	A (A is defined as 0% ≤ substrate protein remaining % ≤ 80%)
O=C1CCC(c2cc(CN3C[C@H]4C[C@@H]3CN4c3ccc(-c4cc(F)c5c(c4)C(=O)N(C(C(=O)Nc4nccs4)c4ncn6c4CCC6)C5)cc3)ccn2)C(=O)N1 (stereo partly drawn) [GT-07390, 2-(6,7-dihydro-5H-pyrrolo[1,2-c]imidazol-1-yl)-2-(6-(4-((1R,4R)-5-((2-(2,6-dioxopiperidin-3-yl)pyridin-4-yl)methyl)-2,5-diazabicyclo[2.2.1]heptan-2-yl)phenyl)-4-fluoro-1-oxoisoindolin-2-yl)-N-(thiazol-2-yl)acetamide]	1 to 10	A (A is defined as 0% ≤ substrate protein remaining % ≤ 80%)
O=C1CCN(c2ccc(CN3C[C@@H]4C[C@H]3CN4c3ccc(-c4cc(F)c5c(c4)C(=O)N(C(C(=O)Nc4nccs4)c4ncn6c4CCC6)C5)cc3)nc2)C(=O)N1 (stereo partly drawn) [GT-05119, 2-(6,7-dihydro-5H-pyrrolo[1,2-c]imidazol-1-yl)-2-(6-(4-((1S,4S)-5-((5-(2,4-dioxotetrahydropyrimidin-1(2H)-yl)pyridin-2-yl)methyl)-2,5-diazabicyclo[2.2.1]heptan-2-yl)phenyl)-4-fluoro-1-oxoisoindolin-2-yl)-N-(thiazol-2-yl)acetamide]	10 to 50	A (A is defined as 0% ≤ substrate protein remaining % ≤ 80%)
O=C1CCN(c2cncc(CN3C[C@H]4C[C@@H]3CN4c3ccc(-c4cc(F)c5c(c4)C(=O)N(C(C(=O)Nc4nccs4)c4ncn6c4CCC6)C5)cc3)c2)C(=O)N1 (stereo partly drawn) [GT-07388, 2-(6,7-dihydro-5H-pyrrolo[1,2-c]imidazol-1-yl)-2-(6-(4-((1R,4R)-5-((5-(2,4-dioxotetrahydropyrimidin-1(2H)-yl)pyridin-3-yl)methyl)-2,5-diazabicyclo[2.2.1]heptan-2-yl)phenyl)-4-fluoro-1-oxoisoindolin-2-yl)-N-(thiazol-2-yl)acetamide]	1 to 10	A (A is defined as 0% ≤ substrate protein remaining % ≤ 80%)
CC(C)n1nc(N2CCN(Cc3ccc(N4CCC(=O)NC4=O)cn3)CC2)c2cnc(Nc3ccnc(-c4cnn(S(=O)(=O)C5CC5)c4)n3)cc21 [GT-06014, 1-(6-((4-(6-((2-(1-(cyclopropylsulfonyl)-1H-pyrazol-4-yl)pyrimidin-4-yl)amino)-1-isopropyl-1H-pyrazolo[4,3-c]pyridin-3-yl)piperazin-1-yl)methyl)pyridin-3-yl)dihydropyrimidine-2,4(1H,3H)-dione]	–	A (A is defined as 0% ≤ substrate protein remaining % ≤ 80%)
CN(Cc1ccc(N2CCC(=O)NC2=O)cc1)C1CCN(c2ccc(Nc3ncc4nc(Nc5ccccc5)n(C5CCCC5)c4n3)cc2)CC1 [GT-07092, 1-(4-(((1-(4-((9-cyclopentyl-8-(phenylamino)-9H-purin-2-yl)amino)phenyl)piperidin-4-yl)(methyl)amino)methyl)phenyl)dihydropyrimidine-2,4(1H,3H)-dione]	–	A (A is defined as 0% ≤ substrate protein remaining % ≤ 80%)
COc1cc(N2CCC(N(C)Cc3ccc(C4CCC(=O)NC4=O)c(F)c3)CC2)c(C)cc1Nc1ncc(Br)c(Nc2ccc3nccnc3c2P(C)(C)=O)n1 (stereo not drawn) [GT-03931, 3-(4-(((1-(4-((5-bromo-4-((5-(dimethylphosphoryl)quinoxalin-6-yl)amino)pyrimidin-2-yl)amino)-5-methoxy-2-methylphenyl)piperidin-4-yl)(methyl)amino)methyl)-2-fluorophenyl)piperidine-2,6-dione]	–	A (A is defined as 0% ≤ substrate protein remaining % ≤ 80%)
CCn1nc(N2CCC(N(C)Cc3ccc(N4CCC(=O)NC4=O)nc3)CC2)c2cnc(Nc3ccnc(-c4cnn(S(=O)(=O)C5CC5)c4)n3)cc21 [GT-06022, 1-(5-(((1-(6-((2-(1-(cyclopropylsulfonyl)-1H-pyrazol-4-yl)pyrimidin-4-yl)amino)-1-ethyl-1H-pyrazolo[4,3-c]pyridin-3-yl)piperidin-4-yl)(methyl)amino)methyl)pyridin-2-yl)dihydropyrimidine-2,4(1H,3H)-dione]	–	A (A is defined as 0% ≤ substrate protein remaining % ≤ 80%)
COC1CCN(c2nccc(Nc3cc4c(cn3)c(N3CCC(N(C)Cc5cccc(N6CCC(=O)NC6=O)c5)CC3)nn4C(C)C)n2)CC1 [GT-06122, 1-(3-(((1-(1-isopropyl-6-((2-(4-methoxypiperidin-1-yl)pyrimidin-4-yl)amino)-1H-pyrazolo[4,3-c]pyridin-3-yl)piperidin-4-yl)(methyl)amino)methyl)phenyl)dihydropyrimidine-2,4(1H,3H)-dione]	–	A (A is defined as 0% ≤ substrate protein remaining % ≤ 80%)
CC(C)n1nc(N2CCN(Cc3cccc(NC4CCC(=O)NC4=O)c3)CC2)c2cnc(Nc3ccnc(-c4cnn(S(=O)(=O)C5CC5)c4)n3)cc21 (stereo not drawn) [GT-06016, 3-((3-((4-(6-((2-(1-(cyclopropylsulfonyl)-1H-pyrazol-4-yl)pyrimidin-4-yl)amino)-1-isopropyl-1H-pyrazolo[4,3-c]pyridin-3-yl)piperazin-1-yl)methyl)phenyl)amino)pip eridine-2,6-dione]	–	A (A is defined as 0% ≤ substrate protein remaining % ≤ 80%)
COC1CCN(c2nccc(Nc3cc4c(cn3)c(N3CCN(Cc5cccc(N6CCC(=O)NC6=O)c5)CC3)nn4C(C)C)n2)CC1 [GT-06038, 1-(3-((4-(1-isopropyl-6-((2-(4-methoxypiperidin-1-yl)pyrimidin-4-yl)amino)-1H-pyrazolo[4,3-c]pyridin-3-yl)piperazin-1-yl)methyl)phenyl)dihydropyr imidine-2,4(1H,3H)-dione]	–	A (A is defined as 0% ≤ substrate protein remaining % ≤ 80%)
COc1cc(N2CCN(Cc3ccc(C4CCC(=O)NC4=O)cc3)CC2)c(C)cc1Nc1ncc(Br)c(Nc2ccc3nccnc3c2P(C)(C)=O)n1 (stereo not drawn) [GT-03913, 3-(4-((4-(4-((5-bromo-4-((5-(dimethylphosphoryl)quinoxalin-6-yl)amino)pyrimidin-2-yl)amino)-5-methoxy-2-methylphenyl)piperazin-1-yl)methyl)phenyl)piperidine-2,6-dione]	–	A (A is defined as 0% ≤ substrate protein remaining % ≤ 80%)
